Measurements from paper PMC8394784, “Analogs of a Natural Peptaibol Exert Anticancer Activity in Both Cisplatin- and Doxorubicin-Resistant Cells and in Multicellular Tumor Spheroids” (International Journal of Molecular Sciences, 2021).

How the values were obtained:
A2780 and A2780cis = assay: K6-FITC uptake, time-lapse confocal microscopy with PI; type: cell-based, human; details: 30 µM K6-FITC, 37 °C
Procedure: (§1) The uptake of peptaibols was evaluated by confocal microscopy and flow cytometry using the fluorescent K6-FITC analog. For confocal microscopy, cells were plated onto glass bottom culture dishes and treated with K6-FITC (30 µM) and propidium iodide (PI) 2 µg/mL. K6-FITC uptake was monitored using confocal microscope in time-lapse xyzt acquisition mode (Leica DM IRE2) keeping cells at 37 °C and 5% CO2. To trace peptaibol penetration in spheroids, single four-day-old SKOV3-MCTs were incubated with K6-FITC (20 µM) and images acquired using confocal microscopy.

KM-H2 cells = assay: as above; type: cell-based, human; details: KM-H2, 30 µM K6-FITC, PI 2 µg/mL, 60 min of incubation, 37 °C
Procedure: as §1

KM-H2 = assay: cells; details: KM-H2, 24 h
Procedure: (§2) OvCa cells and fibroblasts were seeded in 96 well (10.0 × 10^3) the day before treatment to allow cell adherence. […] Half maximal inhibitory concentrations (IC50) were calculated using CalcuSyn software, v2.1 (Biosoft, Ferguson, MO, USA). Fold resistance (FR) was calculated as the ratio of the IC50 of drug-resistant cell line (KM-H2dx, HDLM-2dx, and A2780cis) to that of the respective parental cell line (KM-H2, HDLM-2, and A2780).

A2780 = assay: cells; details: A2780, 24 h
Procedure: as §2

[1] = test system: A2780cis (cisplatin-resistant clone of A2780); assay: cells; details: for IC50: A2780cis, 24 h; for fold resistance (FR): ratio IC50 A2780cis / IC50 A2780
Procedure: (§3) Authenticated cHL-derived cell lines L-1236, L-428, KM-H2, and HDLM-2 were from DSMZ (Braunschweig, Germany). Doxorubicin-resistant KM-H2dx and HDLM-2dx cells were developed in our laboratory by continuous exposure of KM-H2 and HDLM-2 cells to 35 nM doxorubicin. HDLM-2dx and KM-H2dx cells were maintained in doxorubicin and cultured without the drug 72 h before use. All cell lines are here collectively called “cHL cells”. Authenticated OvCa cell lines A2780 and A2780cis were from Sigma-Aldrich, (Milano, Italy) SKOV3 (HTB-77) were obtained from the American Type Culture Collection (ATCC), OVCAR5 (NIH) were provided by Dr. Baldassarre (CRO, Aviano, Italy). A2780cis cells were maintained in 1 µM cisplatin and cultured without the drug for 72 h before use. […] Peripheral blood mononuclear cells (PBMCs) were obtained from healthy donor blood by density gradient centrifugation on a Ficoll-Paque PLUS (GE Healthcare); they were washed twice with PBS before use and cultured in RPMI-1640 medium containing 10% fetal bovine serum. Human dermal fibroblasts, a generous gift of Dr. Capuano [44], were maintained in Dulbecco′s Modified Eagle′s Medium (DMEM) high glucose (Gibco) plus 10% fetal bovine serum.
as §2

[2] = test system: A2780, A2780cis, and KM-H2 cells; type: cell-based, human; details: 24 h
Procedure: Supplemental Figure S6. Cytotoxic activity of K6-FITC. A2780, A2780cis, and KM-H2 cells were cultured with K6-FITC. After 24 hours cell viability was evaluated by MTT assay for A2780 and A2780cis and by MTS assay for KM-H2 cells. Results are mean and SD of three independent experiments. IC50 was calculated using Calcusyn software.
(1 picture or pasted object on this page, not shown here)

SKOV3-MCTSs [3] = assay: K6-FITC penetration in spheroids, confocal microscopy; type: cell-based, human; details: 20 µM K6-FITC, four-day-old single spheroids, confocal time-lapse
Procedure: as §1

[4] = test system: A2780 and HDLM-2 vs PBMCs and fibroblasts; assay: K6-FITC uptake by flow cytometry, tumor vs normal cells; type: cell-based, human; details: 0.25–2.5 µM K6-FITC, 5, 30 and 120 min, three independent experiments
Procedure: For flow cytometry, cells were treated with different concentrations of K6-FITC (0–2.5 µM). After 5, 30 and 120 min of incubation, cells were washed and evaluated for green fluorescence intensity by flow cytometry on a BD FACSCanto II flow cytometer. Annexin-V assay: cells were treated with peptaibols for 24 h, then stained for 15 min with FITC AnnexinV (Thermo Fisher Scientific, Monza, Italy) and 7-Amino-Actinomycin D (7AAD) (BD Pharmingen, Milano, Italy) and analyzed using flow cytometry. Data were analyzed using BD FACSDiva v.8.0.1 software (BD Biosciences, Milano, Italy).

[5] = test system: human peripheral blood mononuclear cells (PBMCs); assay: Cytotoxicity in healthy cells, MTS assay; details: 24 h, mean (SD)
Procedure: (§4) Authenticated cHL-derived cell lines L-1236, L-428, KM-H2, and HDLM-2 were from DSMZ (Braunschweig, Germany). Doxorubicin-resistant KM-H2dx and HDLM-2dx cells were developed in our laboratory by continuous exposure of KM-H2 and HDLM-2 cells to 35 nM doxorubicin. HDLM-2dx and KM-H2dx cells were maintained in doxorubicin and cultured without the drug 72 h before use. All cell lines are here collectively called “cHL cells”. Authenticated OvCa cell lines A2780 and A2780cis were from Sigma-Aldrich, (Milano, Italy) SKOV3 (HTB-77) were obtained from the American Type Culture Collection (ATCC), OVCAR5 (NIH) were provided by Dr. Baldassarre (CRO, Aviano, Italy). A2780cis cells were maintained in 1 µM cisplatin and cultured without the drug for 72 h before use. […]
as §2

SKOV3-MCTSs [6] = assay: SKOV3 spheroid cell viability, PrestoBlue; type: cell-based, human; details: 24 h treatment
Description: Multiple SKOV3-MCTSs were obtained by seeding 10.0 × 10^3 cells in non-adherent conditions.

SKOV3-MCTSs [7] = assay: SKOV3 spheroid (MCTS) volume; type: cell-based, human; details: 25 µM, 3 days of treatment, four-day old single spheroids
Procedure: To obtain the 3 dimensional (3D) SKOV3-MCTSs, cells were cultured in non-adherent conditions on plates coated twice with 20 mg/mL of poly(2-hydroxyethyl methacrylate) (poly-HEMA; Sigma) in 95% ethanol. Single spheroids with defined size were generated by culturing 1.0 × 10^3 SKOV3 cells onto poly-HEMA-coated 96-well for 4 days. Then, single SKOV3-MCTSs were treated with increasing concentrations of peptaibols (0–25 µM). SKOV3-MCTSs size was measured and photographed up to 72 h after treatment initiation using an inverted microscope (Eclipse TS/100, Nikon) with the DS Camera Control Unit DS-L2 photo micrographic system. SKOV3-MCTSs volumes were calculated using the formula: (width^2 × length × 3.14)/6 [47].

SKOV3 = assay: cells
Procedure: as §2

L-428 = assay: cells; details: L-428, 24 h
Procedure: as §2

HDLM-2 = assay: cells; details: HDLM-2, 24 h
Procedure: as §2

OVCAR5 = assay: cells
Procedure: as §2

L-1236 = assay: cells; details: L-1236, 24 h
Procedure: as §2

[8] = test system: KM-H2dx (doxorubicin-resistant clone of KM-H2); assay: cells; details: for fold resistance (FR): ratio IC50 KM-H2dx / IC50 KM-H2
Procedure: as §3, §2

[9] = test system: HDLM-2dx (doxorubicin-resistant clone of HDLM-2); assay: cells; details: for fold resistance (FR): ratio IC50 HDLM-2dx / IC50 HDLM-2
Procedure: as §3, §2

human fibroblasts = assay: Cytotoxicity in healthy cells, MTT assay; details: healthy human dermal fibroblasts, 24 h, mean (SD)
Procedure: as §4, §2

| SMILES | IC50 (KM-H2; MTS, mean (SD)) [µM] | IC50 (A2780; MTT, mean (SD)) [µM] | IC50 ([1]; MTT, mean (SD)) [µM] | IC50 (SKOV3; SKOV3, 24 h, MTT, mean (SD)) [µM] | IC50 (L-428; MTS, mean (SD)) [µM] | IC50 (HDLM-2; MTS, mean (SD)) [µM] | IC50 (OVCAR5; OVCAR5, 24 h, MTT, mean (SD)) [µM] | IC50 (L-1236; MTS, mean (SD)) [µM] | IC50 ([8]; KM-H2dx, 24 h, MTS, mean (SD)) [µM] | fold resistance (FR) [8] | IC50 ([9]; HDLM-2dx, 24 h, MTS, mean (SD)) [µM] | fold resistance (FR) [9] | fold resistance (FR) [1] | also measured |
| --- | --- | --- | --- | --- | --- | --- | --- | --- | --- | --- | --- | --- | --- | --- |
| CCCCCCCC(=O)NC(C)(C)C(=O)NCC(=O)N[C@@H](CC(C)C)C(=O)NC(C)(C)C(=O)NCC(=O)N[C@@H](CCCCN)C(=O)N[C@@H](CC(C)C)C(=O)NC(C)(C)C(=O)NCC(=O)N[C@H](C(=O)N[C@@H](CC(C)C)C(=O)NCCNC(=S)Nc1ccc2c(c1)C(=O)OC21c2ccc(O)cc2Oc2cc(O)ccc21)[C@@H](C)CC [K6-FITC] | 30 | 24.5 | 29 | – | – | – | – | – | – | – | – | – | – | uptake (A2780 and A2780cis): rapidly taken up in both cell lines; uptake and PI staining (KM-H2 cells): all cells were double stained; IC50 [2]: ~30 µM; penetration into SKOV3-MCTSs (SKOV3-MCTSs [3]): rapidly and deeply penetrated; uptake (mean fluorescence intensity) by tumor cells compared with normal cells [4]: in a higher quantity and in a faster way |
| CCCCCCCC(=O)NC(C)(C)C(=O)NCC(=O)N[C@@H](CC(C)C)C(=O)NC(C)(C)C(=O)NCC(=O)N[C@@H](CCCCN)C(=O)N[C@@H](CC(C)C)C(=O)NC(C)(C)C(=O)NCC(=O)N[C@H](C(=O)N[C@H](CO)CC(C)C)[C@@H](C)CC [K6-Lol] | 7.5 | 7.9 | 9.1 | 8.4 | 8.9 | 12.6 | 7.5 | 11.7 | 7.2 | ~1 | 11.9 | ~1 | – | IC50 [5]: 7.1 (0.4) µM; SKOV3-MCTS cell viability (SKOV3-MCTSs [6]): dose-dependent decrease; SKOV3-MCTS volume (SKOV3-MCTSs [7]): completely eliminated them; IC50 (human fibroblasts): 15.0 (1.4) µM |
| COc1cccc2c1C(=O)c1c(O)c3c(c(O)c1C2=O)C[C@@](O)(C(=O)CO)C[C@@H]3O[C@H]1C[C@H](N)[C@H](O)[C@H](C)O1 [Doxorubicin] | – | – | – | – | – | – | – | – | – | 9 | – | 9 | 5.6 | IC50 (KM-H2; Homo sapiens): 0.0221 µM; IC50 (SKOV3; Homo sapiens, SK-OV-3, 24 h): 0.13 µM; IC50 (L-428; Homo sapiens): 0.0184 µM; IC50 (HDLM-2; Homo sapiens): 0.0405 µM; IC50 (OVCAR5; Homo sapiens, OVCAR-5, 24 h): 0.47 µM; IC50 (L-1236; Homo sapiens): 0.0464 µM; IC50 (A2780; Homo sapiens): 0.0204 µM; IC50 ([8]; Homo sapiens, KM-H2, 24 h): 0.202 µM; IC50 ([9]; Homo sapiens, HDLM-2, 24 h): 0.368 µM; IC50 ([1]; Homo sapiens): 0.116 µM |
| N.N.[Cl][Pt][Cl] [Cisplatin, cisplatin] | 0.5 | 1.3 | 10.4 | 7.7 | 0.5 | 1.3 | 7.7 | 0.8 | 1.2 | 2.6 | 4 | 3.11 | 8 | – |
